In patent US20080312253A1, “Pharmaceutical compositions containing pyrazole derivatives for treating as serotonin antagonist” (KOREA INSTITUTE OF SCIENCE AND TECHNOLOGY, priority 2007, published 2008):

How the values were obtained:
[1] = molecular target: T1, serotonin 5-HT3A receptor (Homo sapiens, UniProt P46098); test: Assay for 5-HT3A receptor: two-electrode voltage clamp of 5-HT-induced inward current in Xenopus oocytes expressing 5-HT3A receptor; type: cell-based; details: inhibition of inward current (I5-HT) induced by 5-HT (1 μM), Xenopus laevis oocytes, from concentration-response curves; for IC50: read-out: IC50 (50% inhibitory concentration); for inhibition: read-out: maximum inhibition value (Vmax)
T1 sequence (P46098 24-478): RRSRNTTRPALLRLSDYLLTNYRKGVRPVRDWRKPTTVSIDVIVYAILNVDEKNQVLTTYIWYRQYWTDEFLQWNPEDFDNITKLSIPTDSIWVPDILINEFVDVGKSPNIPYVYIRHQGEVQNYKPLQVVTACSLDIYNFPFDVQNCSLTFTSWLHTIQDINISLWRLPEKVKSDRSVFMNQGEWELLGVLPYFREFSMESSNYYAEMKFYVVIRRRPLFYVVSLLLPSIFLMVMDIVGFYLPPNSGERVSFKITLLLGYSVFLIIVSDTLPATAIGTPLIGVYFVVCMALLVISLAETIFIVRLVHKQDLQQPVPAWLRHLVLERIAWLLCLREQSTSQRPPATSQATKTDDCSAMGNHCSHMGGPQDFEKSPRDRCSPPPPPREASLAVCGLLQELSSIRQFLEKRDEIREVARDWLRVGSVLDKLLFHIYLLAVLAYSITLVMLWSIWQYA

With `CCCc1cc(CNCCN2CCN(c3ccc(Cl)cc3)CC2)nn1-c1ccccc1` [Compound 5, 1-Phenyl-3-{2-[4-(4-chlorophenyl)piperazin-1-yl]ethyl}aminomethyl-5-propylpyrazole] the “Hill coefficient (nH)” value [1] was 1.5 ± 0.3, the IC50 [1] was 1.3 ± 0.2 µM and the inhibition [1] was 94.8 ± 4.8%.

In the case of `Clc1ccc(N2CCN(CCNCc3cc(-c4ccccc4)n(-c4ccccc4)n3)CC2)cc1` [Compound 11, 1,5-Diphenyl-3-{2-[4-(4-chlorophenyl)piperazin-1-yl]ethyl}aminomethyl-5-pyrazole], the “Hill coefficient (nH)” value [1] is reported as 1.1 ± 0.1, the IC50 [1] is reported as 3.1 ± 0.3 µM and the inhibition [1] is reported as 101 ± 2.6%.

`Cc1ccc(-c2cc(CNCCN3CCN(c4ccc(Cl)cc4)CC3)nn2-c2ccccc2)cc1` [Compound 12, 1,5-Diphenyl-3-{2-[4-(4-chlorophenyl)piperazin-1-yl]ethyl}aminomethyl-5-toluylpyrazole] gave an IC50 [1] of 2.2 ± 0.2 µM and an inhibition [1] of 95.5 ± 3.5%.

With “1-Phenyl-3-{2-[4-(4-chlorophenyl)piperazin-1-yl]ethyl}aminomethyl-5-methylpyrazole [Compound 3]” the “Hill coefficient (nH)” value [1] was 1.4 ± 0.1, the “maximum inhibition value (Vmax)” value [1] was 98.5 ± 1.2 and the IC50 [1] was 2.5 ± 0.3 µM.

With `Cc1ccc(-c2cc(CNCCN3CCN(c4ccc(Cl)cc4)CC3)nn2C(C)(C)C)cc1` [Compound 9] the IC50 [1] was 2.4 ± 0.4 µM and the inhibition [1] was 103 ± 6.5%.

In the case of `Clc1cccc(N2CCN(CCNCc3cc(-c4ccco4)n(-c4ccccc4)n3)CC2)c1` [Compound 1, 1-Phenyl-3-{2-[4-(3-chlorophenyl)piperazin-1-yl]ethyl}aminomethyl-5-(2-furyl)pyrazole], the “Hill coefficient (nH)” value [1] is reported as 1.5 ± 0.2, the IC50 [1] is reported as 9.4 ± 0.7 µM and the inhibition [1] is reported as 95.9 ± 2.8%.

In the case of `CN1[C@@H]2CC[C@H]1C[C@@H](OC(=O)c1cc(Cl)cc(Cl)c1)C2` [MDL72222, reference compound], the “Hill coefficient (nH)” value [1] is reported as 1.25 ± 0.27 and the inhibition [1] is reported as 99.6 ± 7.7%.

For “1-Phenyl-3-{2-[4-(4-chlorobenzhydryl)piperazin-1-yl]ethyl}aminomethyl-5-toluylpyrazole [Compound 13]”, the “Hill coefficient (nH)” value [1] was 2.2 ± 0.4, the “maximum inhibition value (Vmax)” value [1] was 73.1 ± 3.1 and the IC50 [1] was 8.2 ± 0.8 µM.

In the case of “1-t-Butyl-3-{2-[4-(4-chlorophenyl)piperazin-1-yl]ethyl}aminomethyl-5-propylpyrazole [Compound 4]”, the “Hill coefficient (nH)” value [1] is reported as 1.4 ± 0.3, the “maximum inhibition value (Vmax)” value [1] is reported as 97.3 ± 5.6 and the IC50 [1] is reported as 1.3 ± 0.3 µM.

In the case of `Clc1ccc(N2CCN(CCNCc3cc(-c4ccc(N5CCCCC5)cc4)n(-c4ccccc4)n3)CC2)cc1` [Compound 10, 1-Phenyl-3-{2-[4-(4-chlorophenyl)piperazin-1-yl]ethyl}aminomethyl-5-4-(N-piperidyl)phenylpyrazole], the “Hill coefficient (nH)” value [1] is reported as 1.9 ± 0.1, the IC50 [1] is reported as 6.4 ± 0.3 µM and the inhibition [1] is reported as 95.9 ± 1.6%.

For `CC(C)Cc1cc(CNCCN2CCN(c3ccc(Cl)cc3)CC2)nn1C(C)(C)C` [Compound 7, 1-t-Butyl-3-{2-[4-(4-chlorophenyl)piperazin-1-yl]ethyl}aminomethyl-5-isobutylpyrazole], the “Hill coefficient (nH)” value [1] was 1.4 ± 0.4, the IC50 [1] was 3.3 ± 0.9 µM and the inhibition [1] was 104 ± 3.5%. It also gave a melting point of 133 to 134 °C.

For `CC(C)Cc1cc(CNCCN2CCN(c3ccc(Cl)cc3)CC2)nn1-c1ccccc1` [Compound 6, 1-Phenyl-3-{2-[4-(4-chlorophenyl)piperazin-1-yl]ethyl}aminomethyl-5-isobutylpyrazole], the “Hill coefficient (nH)” value [1] was 1.2 ± 0.1, the IC50 [1] was 2.8 ± 0.2 µM and the inhibition [1] was 103 ± 2.5%.

In the case of `Cc1cc(CNCCN2CCN(c3cccc(Cl)c3)CC2)[nH]n1` [Compound 2, 3-{2-[4-(3-Chlorophenyl)piperazin-1-yl]ethyl}aminomethyl-5-methylpyrazole], the “Hill coefficient (nH)” value [1] is reported as 1.0 ± 0.1, the IC50 [1] is reported as 9.6 ± 1.1 µM and the inhibition [1] is reported as 90.6 ± 2.7%.

With `Clc1ccc(N2CCN(CCNCc3cc(-c4ccco4)n(-c4ccccc4)n3)CC2)cc1` [Compound 8, 1-Phenyl-3-{2-[4-(4-chlorophenyl)piperazin-1-yl]ethyl}aminomethyl-5-(2-furyl)pyrazole] the “Hill coefficient (nH)” value [1] was 2.0 ± 0.2, the IC50 [1] was 4.3 ± 0.3 µM and the inhibition [1] was 97.3 ± 2%.
